The record followed here is patent US9845349B2 (priority 2012, dated 2017).

Several values for one entry are separate records, joined by “and”; a condition that tells them apart may be missing. Identical values can stand only once.

For the first assay, the target named is LFG2:4B10 mAb.
Settings: not given
What is called Kd is the concentration at which binding is half-saturated. As for THQDEIYEQK-biotin, the Kd is 53.1 nM, the “Response R” value is reported as 0.7024 and the binding response worked out at 0.7 nm.
As to TFADEIGGGSK-biotin, the Kd is 25.2 nM and 23.9 nM; the “Response R” value is 0.4475 and 0.4596.
With AFKDEIGGGSK-biotin, the Kd is 28.7 nM and 35.1 nM; the “Response R” value is 0.556 and 0.5352.
Turning to TAKDEIGGGSK-biotin, the Kd was 31.5 nM and 20.9 nM; the “Response R” value was 3.7854 and 3.7743.
Turning to TFKDEAGGGSK-biotin, the affinity, expressed as Kd, was 16.4 nM and the “Response R” value is 5.2909.
Turning to THKDEIGGGSK-biotin, the Kd stood at 60 nM and the “Response R” value is reported as 2.3704.
Take TFKDEIGGGSK-biotin: the Kd amounted to 9.97 nM, the “Response R” value is reported as 4.8387, the binding response amounted to 4.83 nm and the “improvement in binding response versus native epitope THQDEIYEQK-biotin” value was ~7 fold.
As to TFQDEIGGGSK-biotin, the Kd worked out at 34.4 nM and the “Response R” value was 1.3414.
In the case of TFKAEIGGGSK-biotin, the “Response R” value was 0.2612 and 0.2492.
In the case of TFKDAIGGGSK-biotin, binding was put at a Kd of 24.5 nM and the “Response R” value stood at 1.0132.

Staying with this assay, now noted: read-out: dissociation (KD).
Regarding THQDEIYEQK-biotin, the Kd came out at 53 nM.
Take TFKDEIGGGSK-biotin: the Kd was determined as 13.9 nM.
